Assay [1] concerns sporadic PD patient fibroblasts. The assay is described as follows: Mitochondrial membrane potential (MMP, TMRM) in sporadic PD patient fibroblasts. The conditions noted are these: Homo sapiens, Fibroblast, 24 h; for activity at 60 pM: read-out: MMP Bottom (% of vehicle treated); for activity at 0.3 µM: read-out: MMP Top (% of vehicle treated). The class given is cell-based. As for the experimental part:
(§1) Fibroblasts were cultured in DMEM (Invitrogen) and routinely subcultured every 3-5 days using trypsin to dissociate them.
Fibroblasts were cultured and plated into a Griener black 384 pClear® plate at 10000 cells per well in 50 μl of media volume. The plates are left overnight in an incubator to allow the fibroblasts to adhere to the plate surface. The following morning the Glucose based medium is replaced with 25 μl of Galactose based media. The plates were then dosed with the compounds using an ECHO® 550 liquid handling system. The wells were dosed to provide an 8-point concentration range of 0.06 nM-300 nM of compound. After dosing the wells are topped up with a further 25 μl of Galactose based medium and then left in an incubator for 24 hours. After 24 hours, the medium is removed from the wells and replaced with 25 ul phenol free Minimal essential medium with 100 nM TMRM (Sigma) and 10 μM Hoechst Stain (Sigma). The plate is returned to the incubator for another hour after which the stain medium is removed and replaced with 25 ul Phenol free MEM. The plate is then imaged using an IN Cell high content microscope (GE Healthcare) with 10 fields of view per well in 2 channels, Cy3 excitation 542 nm, emission 604-64 nm; and the DAPI excitation 350 nm, emission 450-55 nm at 37° C. with CO2. After imaging the plate is disposed of and the images are Data mined using the INCell developer Toolkit (GE Healthcare).
(§2) After the assays had been repeated in triplicate per line and compound the data was then inputted into Graph pad Prism 7 software suite where a dose response curve is generated using the default “[Agonist] vs response (three parameters)” equation.
(§3) From this EC50 values, lowest response and maximal response were taken and used to calculate the Geometric mean between the 5 different lines assessed.
The mitochondrial membrane potential was measured in fibroblasts from 6 (Table 1) or 3 (Table 2) patients with sporadic Parkinson's disease when treated with Compounds of the invention or Comparator compounds. The results are shown in Tables 1 and 2, where “Bottom”=max response with lowest dose of compound (0.06 nM) and “top”=max response with highest dose of compound (300 nM).

The test system is the same in assay [2]. The assay is described as follows: Cellular ATP levels (ATPlite, normalised to CyQUANT DNA content) in sporadic PD patient fibroblasts. It counts as cell-based. Particulars: Homo sapiens, Fibroblast, 24 h; for activity at 60 pM: read-out: Cellular ATP levels Bottom (% of vehicle treated); for activity at 0.3 µM: read-out: Cellular ATP levels Top (% of vehicle treated). As for the experimental part:
as §1
The ATP protocol is generally as described in Mortiboys et al, “Mitochondrial function and morphology are impaired in parkin-mutant fibroblasts”, Ann Neurol. 2008 November; 64(5):555-65. Briefly, fibroblasts were cultured as and plated into white 384 well plates with 5000 cells per well in 50 μl of media volume. The plates are left overnight in an incubator to allow the fibroblasts to adhere to the plate surface. The following morning the Glucose based medium is replaced with 25 μl of Galactose based medium. The compounds are added to the plates using a ECHO 550 liquid handling system. The wells were dosed to provide an 8-point concentration range of 0.06 nM-300 nM of compound. After dosing the wells are topped up with a further 25 μl of Galactose based medium and then left in an incubator for 24 hours. Following this incubation the medium is removed from the plate and the wells are washed twice with sterile PBS. The wells are filled with 25 μl of Sterile PBS followed by 12.5 μl of Lysis solution from the ATPlite™ Luminescence ATP detection assay system (Perkin Elmer), including 16 cell free wells to use as blank controls. The plate is then placed on a rotary shaker for 5 mins at 700 rpm. Following the shaking 12.5 μl of ATP substrate solution (Perkin Elmer) is added to each well and a further 5 min of shaking. The plate is then placed in darkness for 10 minutes prior to reading. Using a PHERAStar® plate reader, luminescence intensity is recorded. Following the ATP assay the plates are immediately assayed for DNA content in a CyQUANT® assay.
Immediately following The ATP assay DNA content is assessed with the CyQUANT® NF Cell Proliferation Assay Kit (ThermoFisher). CyQUANT® buffer is prepared immediately before the assay and is comprised of 1 ul CyQUANT® dye per ml×1 HBSS solution. 12.5 ul of CyQUANT® buffer is added to each well. Plate left in incubator for 1 hour then read on a PHERAStar® Plate reader with excitation at 497 nm and emission at 520 nm. ATP Quantification for each well is determined using the following formula: […]
as §2, §3
Cellular ATP levels were measured in fibroblasts from 6 (Table 3) or 3 (Table 4) patients with sporadic Parkinson's disease when treated with Compounds of the invention or Comparator compounds. The results are shown in Tables 3 and 4, where “Bottom”=max response with lowest dose of compound (0.06 nM) and “top”=max response with highest dose of compound (300 nM).
For orientation: ATP-based viability assays read luminescence as a measure of living cells.

Where [3] appears, read: read-out: Cellular ATP levels EC50 (nM).
[4] abbreviates: 3 sporadic PD patient fibroblasts, read-out: MMP EC50.
Where [5] appears, read: max response with highest dose (300 nM), 3 sporadic PD patient fibroblasts.
Setting [6] is: max response with lowest dose (0.06 nM), 3 sporadic PD patient fibroblasts.
Setting [7] is: 3 sporadic PD patient fibroblasts, read-out: Cellular ATP levels EC50.
[8] abbreviates: max response with highest dose (300 nM), 6 sporadic PD patient fibroblasts.
[9] abbreviates: max response with lowest dose (0.06 nM), 6 sporadic PD patient fibroblasts.

Where a name gives a salt, the structure may show the parent alone.

Regarding `C[C@H](CCC(=O)O)[C@H]1CC[C@H]2[C@@H]3[C@@H](O)C[C@@H]4C[C@H](O)C(F)(F)C[C@]4(C)[C@H]3CC[C@]12C` [Compound 9, 2,2-difluoro-3α,7β-dihydroxy-5β-cholanic acid], the activity at 60 pM stood at 110% in assay [1] and 99% in assay [2]. The EC50 (usually the concentration giving half of the maximal effect) stood at 2.19 nM in assay [1] (read-out: MMP EC50 (nM)) and 21.3 nM in assay [2] (setting [3]). The activity at 0.3 µM was found to be 112% in assay [1] and 103% in assay [2].
On to `C[C@H](CCC(=O)N1CCC[C@H](C(=O)O)C1)[C@H]1CC[C@H]2[C@@H]3[C@@H](O)C[C@@H]4C[C@@H](O)C(F)(F)C[C@]4(C)[C@H]3CC[C@]12C` [Compound 14, Sodium 1-(2,2-difluoro-3β,7β-dihydroxy-5β-cholan-24-oyl)-piperidine-3-carboxylate], for which the results for the activity at 60 pM in assay [1] and in assay [2] were 94.3% and 107%, respectively. The values for the EC50 in assay [1] (read-out: MMP EC50 (nM)) and in assay [2] (setting [3]) were 18.9 nM and 1.3 nM, respectively. Further, the activity at 0.3 µM in assay [1] is 167%; in assay [2], 127%.
In the case of `C[C@H](CCC(=O)NCC(=O)O)[C@H]1CCC2C3C(CC[C@@]21C)[C@@]1(C)CC(F)(F)[C@H](O)C[C@H]1C[C@@H]3O` (stereo partly drawn) [Compound 17, Sodium N-(2,2-difluoro-3β,7β-dihydroxy-5β-cholan-24-amide)-methylcarboxylic acid], the activity at 60 pM in assay [1] was determined as 88.9%; in assay [2], 101%. In addition, the figures for the concentration giving a half-maximal response (EC50) in assay [1] (read-out: MMP EC50 (nM)) and in assay [2] (setting [3]) were 128 nM and 17.2 nM, respectively. In addition, the figures for the activity at 0.3 µM in assay [1] and in assay [2] were 152% and 132%, respectively.
Consider `C[C@H](CCC(=O)N(C)CCS(=O)(=O)O)[C@H]1CCC2C3C(CC[C@@]21C)[C@@]1(C)CC(F)(F)[C@H](O)C[C@H]1C[C@@H]3O` (stereo partly drawn) [Compound 19, Sodium N-(methyl)-N-(2,2-difluoro-3β,7β-dihydroxy-5β-cholan-24-amide) ethylsulfonic acid], for which the activity at 60 pM in assay [1] came to 95.9%; in assay [2], 98.8%. Further, the EC50 in assay [1] (read-out: MMP EC50 (nM)) stood at 104 nM; in assay [2] (setting [3]), 8.9 nM. In addition, the activity at 0.3 µM in assay [1] turned out to be 143%; in assay [2] it was 122%.
Turning to `C[C@H](CCC(=O)NCCCS(=O)(=O)O)[C@H]1CC[C@H]2[C@@H]3[C@@H](O)C[C@@H]4C[C@@H](O)C(F)(F)C[C@]4(C)[C@H]3CC[C@]12C` [Compound 20, Sodium 3-(2,2-difluoro-3β,7β-dihydroxy-5β-cholan-24-oyl) amino-propanesulfonate], the activity at 60 pM in assay [1] was 99.8%; in assay [2] it was 102%. The EC50 in assay [1] (read-out: MMP EC50 (nM)) worked out at 17.7 nM; in assay [2] (setting [3]), 34.7 nM. The values for the activity at 0.3 µM in assay [1] and in assay [2] were 147% and 122%, respectively.
Take `C[C@H](CCC(=O)NCCOS(=O)(=O)O)[C@H]1CC[C@H]2[C@@H]3[C@@H](O)C[C@@H]4C[C@@H](O)C(F)(F)C[C@]4(C)[C@H]3CC[C@]12C` [Compound 22, Sodium N-(2,2-difluoro-3β,7β-dihydroxy-5β-cholan-24-oyl)-2-aminoethyl sulfate]: the activity at 60 pM came to 99.3% in assay [1] and 95.9% in assay [2]. Further, the results for the EC50 in assay [1] (read-out: MMP EC50 (nM)) and in assay [2] (setting [3]) were 45.4 nM and 6.2 nM, respectively. The activity at 0.3 µM was found to be 146% in assay [1] and 116% in assay [2].
Turning to `C[C@H](CCC(=O)NCCS(C)(=O)=O)[C@H]1CC[C@H]2[C@@H]3[C@@H](O)C[C@@H]4C[C@@H](O)C(F)(F)C[C@]4(C)[C@H]3CC[C@]12C` [Compound 27, N-(2,2-difluoro-3β,7β-dihydroxy-5β-cholan-24-oyl) 2-aminoethyl methyl sulfone], the values for the EC50 in assay [1] (setting [4]) and in assay [2] (setting [7]) were 171 nM and 16.6 nM, respectively. In addition, the activity at 0.3 µM in assay [1] (setting [5]) turned out to be 159%; in assay [2] (setting [5]) it was 114%. The activity at 60 pM was determined as 103% in assay [1] (setting [6]) and 101% in assay [2] (setting [6]).
As to `C[C@H](CCC(=O)N1CCS(=O)(=O)CC1)[C@H]1CCC2C3C(CC[C@@]21C)[C@@]1(C)CC(F)(F)[C@H](O)C[C@H]1C[C@@H]3O` (stereo partly drawn) [Compound 30, N-(2,2-difluoro-3β,7β-dihydroxy-5β-cholan-24-oyl)-thiomorpholine-dioxide], the results for the EC50 in assay [1] (setting [4]) and in assay [2] (setting [7]) were 21 nM and 4.2 nM, respectively. The activity at 0.3 µM was found to be 156% in assay [1] (setting [5]) and 115% in assay [2] (setting [5]). Besides, the activity at 60 pM in assay [1] (setting [6]) was found to be 98.4%; in assay [2] (setting [6]), 96.7%.
Take `C[C@H](CCC(=O)NC1CCCS(=O)(=O)C1)[C@H]1CC[C@H]2[C@@H]3[C@@H](O)C[C@@H]4C[C@@H](O)C(F)(F)C[C@]4(C)[C@H]3CC[C@]12C` (stereo partly drawn) [Compound 31, N-(2,2-difluoro-3β,7β-dihydroxy-5β-cholan-24-oyl) 1,1-dioxidotetrahydro-2H-thiopyran-3-ylamine]: the half-maximal effective concentration (EC50) was 5.5 nM in assay [1] (setting [4]) and 13.3 nM in assay [2] (setting [7]). Also, the figures for the activity at 0.3 µM in assay [1] (setting [5]) and in assay [2] (setting [5]) were 151% and 133%, respectively. For the same compound, the figures for the activity at 60 pM in assay [1] (setting [6]) and in assay [2] (setting [6]) were 99.6% and 108%, respectively.
Consider `C[C@H](CCC(=O)O)[C@H]1CC[C@H]2[C@@H]3C(=O)C[C@@H]4CC(=O)C(F)(F)C[C@]4(C)[C@H]3CC[C@]12C` [Compound E, 2,2-difluoro-3,7-dioxo-5β-cholanic acid, reference compound], for which the EC50 was 23.3 nM in assay [1] (6 sporadic PD patient fibroblasts, read-out: MMP EC50) and 18.8 nM in assay [2] (6 sporadic PD patient fibroblasts, read-out: Cellular ATP levels EC50). For the same compound, the activity at 0.3 µM in assay [1] (setting [8]) came to 112%; in assay [2] (setting [8]) it was 136%. In addition, the values for the activity at 60 pM in assay [1] (setting [9]) and in assay [2] (setting [9]) were 105% and 81.6%, respectively.

The record behind these values is patent US20220073557A1, “FLUORINATED BILE ACIDS” (NZP UK LIMITED, priority 2018, published 2022).
